Source: the supplement of paper PMC5662764
± gives the standard deviation of the averaged measurements.

What was measured:
Experiment in all cases: normalised growth rate inhibition (GR value) relative to DMSO control (GR (1 = untreated growth, 0 = cytostasis, <0 = cytotoxic)); higher = less growth inhibition
Conditions in all cases: 72 h
[1] = system: BT20
Description: (§1)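 Breast cancer cell lines (BT-20, Hs 578T, MCF 10A, MCF7, MDA-MB-231, SK-BR-3) were plated in 384-well plates and treated 24 h later with drugs at six concentrations (0.04-10 µM). Viable cells were counted by Hoechst/dead-cell-stain imaging at 0 and 72 h. Counts were normalised to DMSO controls on the same plate to give the relative cell count and the growth-rate inhibition (GR) value; technical plate triplicates were averaged for each biological replicate.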

[2] = system: HS578T
Description: as §1

[3] = system: MCF10A
Description: as §1

[4] = system: MCF7
Description: as §1

[5] = system: MDAMB231
Description: as §1

[6] = system: SKBR3
Description: as §1

SMILES | normalised growth rate inhibition ([1]; 0.04 µM) | normalised growth rate inhibition ([1]; 0.12 µM) | normalised growth rate inhibition ([1]; 0.37 µM) | normalised growth rate inhibition ([1]; 1.11 µM) | normalised growth rate inhibition ([1]; 3.33 µM) | normalised growth rate inhibition ([1]; 10 µM) | normalised growth rate inhibition ([2]; 0.04 µM) | normalised growth rate inhibition ([2]; 0.12 µM) | normalised growth rate inhibition ([2]; 0.37 µM) | normalised growth rate inhibition ([2]; 1.11 µM) | normalised growth rate inhibition ([2]; 3.33 µM) | normalised growth rate inhibition ([2]; 10 µM) | normalised growth rate inhibition ([3]; 0.04 µM) | normalised growth rate inhibition ([3]; 0.12 µM) | normalised growth rate inhibition ([3]; 0.37 µM) | normalised growth rate inhibition ([3]; 1.11 µM) | normalised growth rate inhibition ([3]; 3.33 µM) | normalised growth rate inhibition ([3]; 10 µM) | normalised growth rate inhibition ([4]; 0.04 µM) | normalised growth rate inhibition ([4]; 0.12 µM) | normalised growth rate inhibition ([4]; 0.37 µM) | normalised growth rate inhibition ([4]; 1.11 µM) | normalised growth rate inhibition ([4]; 3.33 µM) | normalised growth rate inhibition ([4]; 10 µM) | normalised growth rate inhibition ([5]; 0.04 µM) | normalised growth rate inhibition ([5]; 0.12 µM) | normalised growth rate inhibition ([5]; 0.37 µM) | normalised growth rate inhibition ([5]; 1.11 µM) | normalised growth rate inhibition ([5]; 3.33 µM) | normalised growth rate inhibition ([5]; 10 µM) | normalised growth rate inhibition ([6]; 0.04 µM) | normalised growth rate inhibition ([6]; 0.12 µM) | normalised growth rate inhibition ([6]; 0.37 µM) | normalised growth rate inhibition ([6]; 1.11 µM) | normalised growth rate inhibition ([6]; 3.33 µM) | normalised growth rate inhibition ([6]; 10 µM)
Cc1nc(NC(=O)N2CCC[C@H]2C(N)=O)sc1-c1ccnc(C(C)(C)C(F)(F)F)c1 | 1.04 ± 0.017 | 0.979 ± 0.048 | 0.722 ± 0.027 | 0.553 ± 0.12 | 0.123 ± 0.047 | -0.157 ± 0.072 | 0.971 ± 0.012 | 0.9151 ± 0.001 | 0.871 ± 0.026 | 0.838 ± 0.026 | 0.762 ± 0.011 | 0.561 ± 0.051 | 0.976 ± 0.022 | 0.94 ± 0.041 | 0.896 ± 0.061 | 0.865 ± 0.064 | 0.77 ± 0.11 | 0.439 ± 0.14 | 0.871 ± 0.11 | 0.701 ± 0.1 | 0.508 ± 0.14 | 0.365 ± 0.11 | 0.204 ± 0.099 | -0.0344 ± 0.057 | 0.997 ± 0.058 | 0.986 ± 0.038 | 0.963 ± 0.048 | 0.935 ± 0.032 | 0.89 ± 0.015 | 0.65 ± 0.09 | 0.896 ± 0.061 | 0.811 ± 0.059 | 0.679 ± 0.051 | 0.553 ± 0.039 | 0.323 ± 0.11 | -0.0922 ± 0.15
Cn1cc(-c2[nH]c3cc(NC(=O)[C@H](N)C4CCCCC4)cc4c3c2C=NNC4=O)cn1 | 0.886 ± 0.045 | 0.96 ± 0.035 | 0.9538 ± 0.0067 | 0.931 ± 0.027 | 0.8 ± 0.063 | 0.129 ± 0.15 | 0.956 ± 0.018 | 0.601 ± 0.064 | 0.107 ± 0.12 | -0.0219 ± 0.17 | -0.0376 ± 0.14 | -0.103 ± 0.15 | 0.9601 ± 0.0087 | 0.914 ± 0.022 | 0.83 ± 0.037 | 0.63 ± 0.071 | 0.267 ± 0.17 | -0.0312 ± 0.061 | 0.579 ± 0.056 | 0.411 ± 0.041 | 0.335 ± 0.04 | 0.235 ± 0.032 | 0.178 ± 0.018 | 0.0527 ± 0.038 | 0.903 ± 0.039 | 0.913 ± 0.087 | 0.747 ± 0.14 | 0.535 ± 0.21 | 0.297 ± 0.22 | -0.0135 ± 0.14 | -0.00482 ± 0.19 | -0.09 ± 0.2 | -0.136 ± 0.17 | -0.151 ± 0.18 | -0.174 ± 0.14 | -0.183 ± 0.2
N#CC(c1ccnc(NCCc2cccnc2)n1)c1nc2ccccc2s1 (stereo not drawn) | 0.879 ± 0.031 | 0.922 ± 0.034 | 0.999 ± 0.044 | 1.03 ± 0.05 | 1.05 ± 0.035 | 1 ± 0.11 | 0.988 ± 0.016 | 1.01 ± 0.022 | 1.023 ± 0.0087 | 1.025 ± 0.0078 | 1.03 ± 0.023 | 0.932 ± 0.06 | 0.993 ± 0.015 | 0.986 ± 0.011 | 0.982 ± 0.011 | 0.987 ± 0.012 | 0.987 ± 0.016 | 0.707 ± 0.14 | 0.812 ± 0.044 | 0.877 ± 0.091 | 0.923 ± 0.12 | 0.883 ± 0.076 | 0.945 ± 0.085 | 0.659 ± 0.071 | 0.906 ± 0.026 | 0.905 ± 0.023 | 0.92 ± 0.023 | 0.94 ± 0.066 | 0.95 ± 0.096 | 0.726 ± 0.076 | 0.669 ± 0.056 | 0.809 ± 0.11 | 0.876 ± 0.081 | 0.84 ± 0.098 | 0.749 ± 0.13 | 0.383 ± 0.056
Nc1ccc(C(=O)Nc2cccc(-c3nc(N4CCOCC4)c4oc5ncccc5c4n3)c2)cn1 | 1.06 ± 0.025 | 0.999 ± 0.032 | 0.938 ± 0.029 | 0.746 ± 0.053 | 0.577 ± 0.07 | 0.0483 ± 0.094 | 1.02 ± 0.029 | 0.984 ± 0.013 | 0.972 ± 0.033 | 0.865 ± 0.022 | 0.668 ± 0.029 | 0.13 ± 0.053 | 1.015 ± 0.0057 | 0.989 ± 0.01 | 0.951 ± 0.022 | 0.824 ± 0.025 | 0.734 ± 0.051 | 0.301 ± 0.043 | 1.06 ± 0.031 | 0.963 ± 0.034 | 0.856 ± 0.046 | 0.606 ± 0.041 | 0.37 ± 0.12 | -0.043 ± 0.35 | 1.04 ± 0.032 | 0.954 ± 0.058 | 0.869 ± 0.082 | 0.747 ± 0.094 | 0.657 ± 0.14 | 0.0924 ± 0.24 | 1.12 ± 0.043 | 1.03 ± 0.053 | 1.03 ± 0.075 | 0.89 ± 0.072 | 0.769 ± 0.052 | 0.17 ± 0.047
O=C(NOCC1CC1)c1ccc(F)c(F)c1Nc1ccc(I)cc1Cl | 1.05 ± 0.03 | 1.032 ± 0.009 | 1.01 ± 0.043 | 0.9868 ± 0.0023 | 0.95 ± 0.018 | 0.289 ± 0.18 | 0.783 ± 0.081 | 0.686 ± 0.097 | 0.605 ± 0.12 | 0.528 ± 0.12 | 0.476 ± 0.094 | 0.267 ± 0.067 | 0.661 ± 0.016 | 0.547 ± 0.058 | 0.454 ± 0.059 | 0.371 ± 0.079 | 0.279 ± 0.068 | 0.165 ± 0.07 | 0.915 ± 0.15 | 0.81 ± 0.13 | 0.718 ± 0.059 | 0.646 ± 0.074 | 0.574 ± 0.034 | 0.344 ± 0.037 | 0.992 ± 0.058 | 0.8538 ± 0.0075 | 0.77 ± 0.023 | 0.63 ± 0.057 | 0.513 ± 0.05 | 0.181 ± 0.087 | 1.08 ± 0.054 | 1.05 ± 0.048 | 1.04 ± 0.023 | 1.02 ± 0.031 | 0.972 ± 0.077 | 0.611 ± 0.061
O=C(NOC[C@H](O)CO)c1ccc(F)c(F)c1Nc1ccc(I)cc1F | 0.907 ± 0.095 | 0.864 ± 0.059 | 0.838 ± 0.1 | 0.708 ± 0.14 | 0.565 ± 0.086 | 0.439 ± 0.064 | 0.513 ± 0.088 | 0.402 ± 0.055 | 0.328 ± 0.023 | 0.247 ± 0.061 | 0.119 ± 0.078 | 0.0542 ± 0.11 | 0.263 ± 0.072 | 0.184 ± 0.072 | 0.175 ± 0.077 | 0.134 ± 0.083 | 0.0915 ± 0.085 | 0.0555 ± 0.074 | 0.608 ± 0.044 | 0.539 ± 0.02 | 0.503 ± 0.05 | 0.442 ± 0.039 | 0.254 ± 0.06 | 0.0358 ± 0.091 | 0.605 ± 0.043 | 0.413 ± 0.029 | 0.264 ± 0.033 | 0.0779 ± 0.1 | -0.0448 ± 0.12 | -0.0975 ± 0.13 | 0.953 ± 0.066 | 0.902 ± 0.057 | 0.913 ± 0.049 | 0.728 ± 0.027 | 0.445 ± 0.05 | 0.196 ± 0.14
O=C1NC(=O)/C(=C/c2ccc3nccc(-c4ccncc4)c3c2)S1 | 0.934 ± 0.086 | 0.638 ± 0.15 | 0.192 ± 0.15 | -0.221 ± 0.082 | -0.352 ± 0.1 | -0.44 ± 0.1 | 0.948 ± 0.035 | 0.835 ± 0.057 | 0.647 ± 0.083 | 0.372 ± 0.044 | 0.0713 ± 0.13 | -0.118 ± 0.12 | 0.987 ± 0.039 | 0.887 ± 0.11 | 0.608 ± 0.17 | 0.143 ± 0.074 | -0.0425 ± 0.058 | -0.115 ± 0.059 | 0.983 ± 0.059 | 0.844 ± 0.057 | 0.581 ± 0.08 | 0.224 ± 0.075 | -0.0358 ± 0.081 | -0.203 ± 0.081 | 1.03 ± 0.083 | 0.992 ± 0.052 | 0.912 ± 0.049 | 0.513 ± 0.18 | 0.131 ± 0.25 | -0.0544 ± 0.27 | 0.987 ± 0.084 | 0.81 ± 0.14 | 0.541 ± 0.15 | 0.0268 ± 0.1 | -0.291 ± 0.12 | -0.421 ± 0.12
c1ccc2c(-c3cnn4cc(-c5ccc(N6CCNCC6)cc5)cnc34)ccnc2c1 | 0.994 ± 0.036 | 0.905 ± 0.039 | 0.915 ± 0.093 | 0.645 ± 0.21 | -0.08 ± 0.34 | -0.507 ± 0.082 | 0.952 ± 0.025 | 0.911 ± 0.011 | 0.897 ± 0.027 | 0.862 ± 0.072 | 0.244 ± 0.58 | -0.361 ± 0.083 | 0.999 ± 0.014 | 0.9817 ± 0.0032 | 0.9705 ± 0.0076 | 0.953 ± 0.032 | 0.661 ± 0.34 | -0.396 ± 0.11 | 1.08 ± 0.047 | 1 ± 0.075 | 1.01 ± 0.072 | 0.868 ± 0.044 | 0.258 ± 0.34 | -0.368 ± 0.019 | 0.996 ± 0.073 | 0.938 ± 0.084 | 0.925 ± 0.072 | 0.727 ± 0.056 | 0.0105 ± 0.45 | -0.355 ± 0.038 | 1.09 ± 0.11 | 1.04 ± 0.11 | 1.09 ± 0.056 | 0.987 ± 0.048 | -0.0902 ± 0.23 | -0.515 ± 0.11
